Laboratory results published in ChEMBL document CHEMBL6078616, “Seven-membered N-heterocycles as approved drugs and promising leads in medicinal chemistry as well as the metal-free domino access to their scaffolds” (Eur J Med Chem, 2024).
pIC50, pKi: −log10 of the molar value.

Assays:
[1] = system: Trypanosoma cruzi; experiment: Antitrypanosomal activity against Trypanosoma cruzi Y strain trypomastigotes […] in African green monkey Vero cells assessed as inhibition of parasite growth incubated for 24 hrs by Neubauer chamber based analysis; assay type: functional, organism-based
[2] = Cytotoxicity against African green monkey Vero cells assessed as reduction in cell viability incubated for 72 hrs by MTT assay; assay type: toxicity, cell-based; details: chlorocebus sabaeus
[3] = system: Leishmania infantum; experiment: Antileishmanial activity against Leishmania infantum promastigote assessed as reduction in parasite growth after 72 hrs by MTT assay; assay type: functional, organism-based
[4] = Cytotoxicity against human THP-1 cells assessed as reduction in cell viability; assay type: toxicity, cell-based
[5] = biological target: T1, Protein deacetylase HDAC6 (Homo sapiens, UniProt Q9UBN7); experiment: Inhibition of HDAC6 (unknown origin)
T1 sequence (Q9UBN7 whole entry): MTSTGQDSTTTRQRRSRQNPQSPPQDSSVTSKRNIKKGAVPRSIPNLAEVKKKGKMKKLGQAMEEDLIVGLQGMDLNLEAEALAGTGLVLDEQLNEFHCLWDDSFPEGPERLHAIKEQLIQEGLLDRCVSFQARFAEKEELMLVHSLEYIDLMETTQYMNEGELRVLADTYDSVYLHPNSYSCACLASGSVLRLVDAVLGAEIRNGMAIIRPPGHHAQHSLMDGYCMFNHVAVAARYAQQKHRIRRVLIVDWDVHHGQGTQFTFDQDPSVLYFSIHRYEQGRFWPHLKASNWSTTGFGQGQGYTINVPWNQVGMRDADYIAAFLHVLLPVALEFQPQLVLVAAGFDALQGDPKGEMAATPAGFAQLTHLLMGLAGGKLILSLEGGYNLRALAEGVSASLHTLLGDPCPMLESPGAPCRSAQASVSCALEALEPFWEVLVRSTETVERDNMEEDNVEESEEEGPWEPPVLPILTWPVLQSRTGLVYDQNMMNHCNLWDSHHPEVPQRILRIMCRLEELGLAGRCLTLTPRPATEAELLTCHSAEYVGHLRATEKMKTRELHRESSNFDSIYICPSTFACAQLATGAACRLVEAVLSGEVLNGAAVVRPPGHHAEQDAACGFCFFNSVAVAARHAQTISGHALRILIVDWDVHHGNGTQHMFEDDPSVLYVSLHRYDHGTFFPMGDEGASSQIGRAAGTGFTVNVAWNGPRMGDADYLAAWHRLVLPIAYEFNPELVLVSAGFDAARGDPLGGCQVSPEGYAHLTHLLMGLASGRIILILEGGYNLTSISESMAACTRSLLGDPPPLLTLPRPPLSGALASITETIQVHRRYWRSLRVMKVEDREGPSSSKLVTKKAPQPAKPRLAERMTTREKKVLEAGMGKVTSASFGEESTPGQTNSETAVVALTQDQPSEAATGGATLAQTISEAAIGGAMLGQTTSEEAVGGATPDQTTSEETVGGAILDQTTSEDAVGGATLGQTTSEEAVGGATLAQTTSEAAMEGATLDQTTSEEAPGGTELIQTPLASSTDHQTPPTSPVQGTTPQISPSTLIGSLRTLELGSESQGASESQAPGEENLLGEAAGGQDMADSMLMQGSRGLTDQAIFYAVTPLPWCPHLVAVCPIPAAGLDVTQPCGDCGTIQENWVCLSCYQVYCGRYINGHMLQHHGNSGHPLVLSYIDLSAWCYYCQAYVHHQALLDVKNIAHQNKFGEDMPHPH

[6] = biological target: Sigma intracellular receptor 2 (Homo sapiens, UniProt Q5BJF2); experiment: Binding affinity to TMEM97 (unknown origin) assessed as inhibition constant
[7] = system: HeLa; experiment: cells; details: Homo sapiens
Description: Antiproliferative activity against human HeLa cells assessed as reduction in cell viability

[8] = biological target: T2, Histone deacetylase 11 (Homo sapiens, UniProt Q96DB2); experiment: Inhibition of HDAC11 (unknown origin)
T2 sequence (Q96DB2 whole entry): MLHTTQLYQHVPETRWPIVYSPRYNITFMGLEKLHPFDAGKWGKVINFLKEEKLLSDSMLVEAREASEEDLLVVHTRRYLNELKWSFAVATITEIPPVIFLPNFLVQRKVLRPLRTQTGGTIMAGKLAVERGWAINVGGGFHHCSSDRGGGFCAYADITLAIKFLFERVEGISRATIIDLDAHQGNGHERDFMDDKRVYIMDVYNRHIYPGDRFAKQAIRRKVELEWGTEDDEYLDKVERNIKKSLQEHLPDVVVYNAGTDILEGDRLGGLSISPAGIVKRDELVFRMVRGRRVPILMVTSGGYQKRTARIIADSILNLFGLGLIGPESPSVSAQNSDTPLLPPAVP

[9] = biological target: Histone deacetylase 1 (Homo sapiens, UniProt Q13547); experiment: Inhibition of HDAC1 (unknown origin)
[10] = biological target: Histone deacetylase 4 (Homo sapiens, UniProt P56524); experiment: Inhibition of HDAC4 (unknown origin)
[11] = biological target: Histone deacetylase 3 (Homo sapiens, UniProt O15379); experiment: Inhibition of HDAC3 (unknown origin)
[12] = biological target: T3, Histone deacetylase 8 (Homo sapiens, UniProt Q9BY41); experiment: Inhibition of HDAC8 (unknown origin)
T3 sequence (Q9BY41 whole entry): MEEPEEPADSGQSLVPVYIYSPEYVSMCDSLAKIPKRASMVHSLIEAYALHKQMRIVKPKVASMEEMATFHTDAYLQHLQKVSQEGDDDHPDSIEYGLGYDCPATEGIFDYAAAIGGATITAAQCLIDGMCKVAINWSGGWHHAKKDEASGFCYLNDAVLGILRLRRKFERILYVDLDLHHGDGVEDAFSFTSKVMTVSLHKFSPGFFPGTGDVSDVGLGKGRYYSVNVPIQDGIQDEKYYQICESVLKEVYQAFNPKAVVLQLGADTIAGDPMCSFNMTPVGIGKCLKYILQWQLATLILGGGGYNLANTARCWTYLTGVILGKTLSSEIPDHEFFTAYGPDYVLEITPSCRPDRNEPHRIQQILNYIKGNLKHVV

[13] = biological target: Histone deacetylase 9 (Homo sapiens, UniProt Q9UKV0); experiment: Inhibition of HDAC9 (unknown origin)
[14] = biological target: Histone deacetylase 5 (Homo sapiens, UniProt Q9UQL6); experiment: Inhibition of HDAC5 (unknown origin)
[15] = biological target: T4, Polyamine deacetylase HDAC10 (Homo sapiens, UniProt Q969S8); experiment: Inhibition of HDAC10 (unknown origin)
T4 sequence (Q969S8 whole entry): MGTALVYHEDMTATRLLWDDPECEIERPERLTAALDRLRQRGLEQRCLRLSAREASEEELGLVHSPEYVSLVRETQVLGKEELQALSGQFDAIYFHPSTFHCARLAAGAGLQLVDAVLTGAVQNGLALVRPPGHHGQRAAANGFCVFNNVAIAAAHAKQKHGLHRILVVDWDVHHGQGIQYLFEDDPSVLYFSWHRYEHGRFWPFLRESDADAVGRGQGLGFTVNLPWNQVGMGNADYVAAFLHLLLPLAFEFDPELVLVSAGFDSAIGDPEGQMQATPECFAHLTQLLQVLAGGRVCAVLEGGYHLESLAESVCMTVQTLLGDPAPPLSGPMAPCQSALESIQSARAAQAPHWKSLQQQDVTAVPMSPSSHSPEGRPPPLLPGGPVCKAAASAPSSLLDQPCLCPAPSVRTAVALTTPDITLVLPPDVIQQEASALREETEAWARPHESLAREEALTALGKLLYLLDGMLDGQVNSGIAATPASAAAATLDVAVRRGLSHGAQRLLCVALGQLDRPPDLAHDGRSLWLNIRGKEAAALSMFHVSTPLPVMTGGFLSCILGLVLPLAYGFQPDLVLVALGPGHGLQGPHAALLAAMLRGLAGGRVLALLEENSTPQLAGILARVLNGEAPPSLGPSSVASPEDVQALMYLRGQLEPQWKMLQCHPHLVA

Chain of Sigma intracellular receptor 2 (Q5BJF2 whole entry): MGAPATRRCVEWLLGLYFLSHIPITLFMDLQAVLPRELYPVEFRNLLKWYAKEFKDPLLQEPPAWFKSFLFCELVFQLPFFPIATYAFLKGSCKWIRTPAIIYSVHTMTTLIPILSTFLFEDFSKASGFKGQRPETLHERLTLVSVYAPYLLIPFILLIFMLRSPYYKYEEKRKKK
Chain of Histone deacetylase 1 (Q13547 whole entry): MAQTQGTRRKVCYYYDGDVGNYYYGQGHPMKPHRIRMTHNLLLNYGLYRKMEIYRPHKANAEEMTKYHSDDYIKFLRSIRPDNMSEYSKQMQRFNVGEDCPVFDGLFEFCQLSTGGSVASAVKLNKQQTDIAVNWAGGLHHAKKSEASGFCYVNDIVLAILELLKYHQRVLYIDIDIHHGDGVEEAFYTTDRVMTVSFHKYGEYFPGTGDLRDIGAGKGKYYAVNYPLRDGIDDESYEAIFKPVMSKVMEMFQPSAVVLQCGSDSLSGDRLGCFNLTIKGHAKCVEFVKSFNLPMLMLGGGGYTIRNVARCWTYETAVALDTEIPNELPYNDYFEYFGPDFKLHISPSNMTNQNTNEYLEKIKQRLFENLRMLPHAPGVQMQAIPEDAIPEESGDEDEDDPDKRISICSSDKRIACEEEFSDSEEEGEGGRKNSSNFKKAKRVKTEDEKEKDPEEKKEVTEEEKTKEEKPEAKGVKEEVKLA
Chain of Histone deacetylase 9 (Q9UKV0 whole entry): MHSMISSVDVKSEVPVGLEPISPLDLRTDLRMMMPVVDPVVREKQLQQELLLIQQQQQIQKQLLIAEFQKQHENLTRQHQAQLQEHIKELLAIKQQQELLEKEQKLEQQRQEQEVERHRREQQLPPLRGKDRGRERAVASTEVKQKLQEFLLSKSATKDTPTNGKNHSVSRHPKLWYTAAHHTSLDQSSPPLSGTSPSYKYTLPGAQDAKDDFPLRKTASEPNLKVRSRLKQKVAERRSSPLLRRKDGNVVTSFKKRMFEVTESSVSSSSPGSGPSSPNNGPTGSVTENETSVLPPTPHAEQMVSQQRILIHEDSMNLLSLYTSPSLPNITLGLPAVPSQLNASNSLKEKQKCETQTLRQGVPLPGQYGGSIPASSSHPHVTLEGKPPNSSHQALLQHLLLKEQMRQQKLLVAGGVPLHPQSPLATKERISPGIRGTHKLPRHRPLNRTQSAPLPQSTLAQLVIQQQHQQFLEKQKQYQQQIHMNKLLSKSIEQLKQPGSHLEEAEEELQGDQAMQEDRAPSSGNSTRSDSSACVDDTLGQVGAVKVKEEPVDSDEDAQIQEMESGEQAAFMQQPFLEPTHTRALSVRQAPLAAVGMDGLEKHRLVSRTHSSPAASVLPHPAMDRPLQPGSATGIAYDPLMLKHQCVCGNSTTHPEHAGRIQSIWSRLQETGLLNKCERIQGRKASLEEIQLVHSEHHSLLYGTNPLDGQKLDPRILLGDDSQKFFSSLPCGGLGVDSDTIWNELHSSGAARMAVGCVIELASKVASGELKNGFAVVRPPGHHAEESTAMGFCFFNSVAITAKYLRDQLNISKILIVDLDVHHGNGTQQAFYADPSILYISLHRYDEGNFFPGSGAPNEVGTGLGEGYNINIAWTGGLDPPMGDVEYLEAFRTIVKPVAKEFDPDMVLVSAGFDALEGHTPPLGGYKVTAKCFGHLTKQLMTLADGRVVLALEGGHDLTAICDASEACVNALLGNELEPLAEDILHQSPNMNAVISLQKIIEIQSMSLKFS
Chain of Histone deacetylase 4 (P56524 whole entry): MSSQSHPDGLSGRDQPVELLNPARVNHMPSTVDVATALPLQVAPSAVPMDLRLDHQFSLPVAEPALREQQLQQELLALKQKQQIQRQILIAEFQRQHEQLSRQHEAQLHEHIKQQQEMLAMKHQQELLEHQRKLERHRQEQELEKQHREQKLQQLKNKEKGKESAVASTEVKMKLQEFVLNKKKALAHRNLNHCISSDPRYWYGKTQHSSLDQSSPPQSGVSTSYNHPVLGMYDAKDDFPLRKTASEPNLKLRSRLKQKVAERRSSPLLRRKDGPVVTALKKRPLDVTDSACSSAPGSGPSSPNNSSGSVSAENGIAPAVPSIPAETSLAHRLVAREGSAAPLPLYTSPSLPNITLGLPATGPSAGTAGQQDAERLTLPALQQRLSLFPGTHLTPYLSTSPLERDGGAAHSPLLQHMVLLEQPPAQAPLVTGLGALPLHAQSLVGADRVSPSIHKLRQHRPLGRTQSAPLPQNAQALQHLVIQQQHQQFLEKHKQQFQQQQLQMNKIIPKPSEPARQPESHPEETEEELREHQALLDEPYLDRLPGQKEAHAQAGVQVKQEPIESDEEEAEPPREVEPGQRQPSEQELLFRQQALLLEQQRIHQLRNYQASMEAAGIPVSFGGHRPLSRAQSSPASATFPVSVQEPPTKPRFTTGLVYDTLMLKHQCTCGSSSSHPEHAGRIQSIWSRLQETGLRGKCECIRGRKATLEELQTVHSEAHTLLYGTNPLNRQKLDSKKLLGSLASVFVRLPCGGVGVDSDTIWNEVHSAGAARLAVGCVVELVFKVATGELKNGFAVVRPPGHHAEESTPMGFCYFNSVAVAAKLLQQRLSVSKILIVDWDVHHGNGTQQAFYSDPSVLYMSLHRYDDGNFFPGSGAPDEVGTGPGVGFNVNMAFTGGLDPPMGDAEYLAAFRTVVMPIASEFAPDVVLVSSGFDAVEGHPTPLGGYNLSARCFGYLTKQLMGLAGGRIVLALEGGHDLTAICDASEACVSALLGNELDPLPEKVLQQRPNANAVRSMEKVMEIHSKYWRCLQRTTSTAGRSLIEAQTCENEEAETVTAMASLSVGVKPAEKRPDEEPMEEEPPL
Chain of Histone deacetylase 3 (O15379 whole entry): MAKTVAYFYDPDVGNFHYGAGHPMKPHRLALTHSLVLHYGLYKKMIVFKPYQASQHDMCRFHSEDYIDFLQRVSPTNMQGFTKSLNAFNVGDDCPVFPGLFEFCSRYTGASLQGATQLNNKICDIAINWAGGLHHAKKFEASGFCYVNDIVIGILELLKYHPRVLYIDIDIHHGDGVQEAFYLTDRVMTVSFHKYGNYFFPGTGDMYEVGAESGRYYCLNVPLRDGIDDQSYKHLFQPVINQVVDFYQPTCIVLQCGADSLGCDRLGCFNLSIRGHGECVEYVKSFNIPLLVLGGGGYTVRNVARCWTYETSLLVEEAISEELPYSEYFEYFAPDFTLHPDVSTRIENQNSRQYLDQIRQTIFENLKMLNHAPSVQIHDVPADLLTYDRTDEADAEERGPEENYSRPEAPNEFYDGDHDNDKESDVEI
Chain of Histone deacetylase 5 (Q9UQL6 whole entry): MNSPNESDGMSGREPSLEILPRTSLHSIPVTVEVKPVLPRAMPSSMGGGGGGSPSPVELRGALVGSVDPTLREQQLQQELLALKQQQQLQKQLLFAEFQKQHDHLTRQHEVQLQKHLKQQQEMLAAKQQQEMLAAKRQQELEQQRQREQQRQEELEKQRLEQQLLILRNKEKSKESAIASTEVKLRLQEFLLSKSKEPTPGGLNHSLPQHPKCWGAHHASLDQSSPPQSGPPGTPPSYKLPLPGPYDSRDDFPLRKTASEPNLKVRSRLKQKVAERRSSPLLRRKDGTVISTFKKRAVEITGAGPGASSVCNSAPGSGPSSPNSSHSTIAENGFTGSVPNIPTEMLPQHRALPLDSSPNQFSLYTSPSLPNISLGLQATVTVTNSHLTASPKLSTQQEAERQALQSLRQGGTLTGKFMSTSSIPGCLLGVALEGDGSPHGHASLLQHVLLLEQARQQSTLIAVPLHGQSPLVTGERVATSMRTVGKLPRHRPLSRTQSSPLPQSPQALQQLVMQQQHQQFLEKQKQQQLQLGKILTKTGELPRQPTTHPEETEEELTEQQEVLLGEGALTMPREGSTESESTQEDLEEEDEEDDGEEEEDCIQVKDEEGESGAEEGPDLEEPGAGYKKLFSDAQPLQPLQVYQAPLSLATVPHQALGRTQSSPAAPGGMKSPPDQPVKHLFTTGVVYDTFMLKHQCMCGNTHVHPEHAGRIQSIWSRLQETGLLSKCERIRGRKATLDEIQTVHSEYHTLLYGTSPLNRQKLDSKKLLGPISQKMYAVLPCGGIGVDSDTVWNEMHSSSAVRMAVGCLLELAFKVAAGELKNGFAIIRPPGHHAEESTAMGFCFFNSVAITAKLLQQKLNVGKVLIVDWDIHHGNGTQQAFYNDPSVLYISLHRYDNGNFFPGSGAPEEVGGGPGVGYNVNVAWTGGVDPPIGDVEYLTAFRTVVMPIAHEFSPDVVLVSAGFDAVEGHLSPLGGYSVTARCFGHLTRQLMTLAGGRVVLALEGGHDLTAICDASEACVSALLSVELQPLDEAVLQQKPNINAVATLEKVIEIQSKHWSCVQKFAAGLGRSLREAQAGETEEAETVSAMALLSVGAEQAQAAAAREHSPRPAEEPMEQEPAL

Row | pIC50 [1] | Compound | CC50 at 72 h [2] [µM] | pIC50 [3] | CC50 [4] [µM] | other results
1 | 5.20 | O[C@@H]1Cc2cc(Br)c3ccccc3c2N[C@H](c2cccc(Cl)c2)C1 | 10 | 4.32 | 45.1 | –
2 | 5.48 | O[C@@H]1Cc2cc(Br)c3ccccc3c2N[C@H](c2cccc(Cl)c2Cl)C1 | 40.1 | 4.93 | 59.8 | –
3 | 5.08 | Brc1ccc([C@@H]2C[C@H]3Cc4ccc5ccccc5c4N2O3)s1 | > 809 | 4.67 | > 809 | –
4 | 4.91 | O[C@@H]1Cc2cc(Br)c3ccccc3c2N[C@H](c2ccccc2)C1 | 25.3 | 3.21 | 24 | –
5 | 5.07 | O=[N+]([O-])c1ccc([C@@H]2C[C@H]3Cc4ccc5ccccc5c4N2O3)o1 | 85.4 | 4.86 | 931 | –
6 | 4.95 | O[C@@H]1Cc2cc(Br)c3ccccc3c2N[C@H](c2ccccc2Cl)C1 | 16 | 5.05 | 11.1 | –
7 | 5.02 | Cc1ccc([C@@H]2C[C@H]3Cc4ccc5ccccc5c4N2O3)o1 | 94.5 | 4.81 | 22.5 | –
8 | 5.15 | Cc1ccccc1[C@@H]1C[C@H](O)Cc2cc(Br)c3ccccc3c2N1 | 113 | 5.11 | 7.1 | –
9 | 4.92 | COc1cccc([C@@H]2C[C@H]3Cc4cc(Br)c5ccccc5c4N2O3)c1 | > 1520 | 4.40 | > 1520 | –

Second part, the compound before the results:

Row | Compound | pIC50 [1] | CC50 at 72 h [2] [µM] | pIC50 [3] | CC50 [4] [µM] | other results
10 | O=C(NO)c1ccc(CN2c3ccccc3S(=O)(=O)C[C@H]3CCCC[C@H]32)cc1 | – | – | – | – | pIC50 [5]: 7.00
11 | FC(F)(F)c1ccc(-c2ccc3c(c2)C2CC3CCN2C2CCCC2)cc1 (centres undefined) | – | – | – | – | pKi [6]: 7.21
12 | CN1CCN(c2ccc3c(c2)C2CC3CCN2C(=O)OCc2ccc(F)cc2)CC1 (centres undefined) | – | – | – | – | pKi [6]: 7.96
13 | CCN1CCN(c2ccc3c(c2)C2CCN(C(=O)OCc4ccccc4)C3C2)CC1 (centres undefined) | – | – | – | – | pKi [6]: 6.94
14 | Cc1ccc([C@@H]2C[C@H]3Cc4ccc5ccccc5c4N2O3)s1 | 4.95 | 498 | 4.96 | > 977 | –
15 | O=C1Cc2cnn(-c3cc(Cl)cc(Cl)c3)c2-c2ccccc2N1 | – | – | – | – | pIC50 [7]: 5.88
16 | O=C(NO)c1ccc(CN2c3ccccc3SC[C@H]3CCCCC[C@H]32)cc1 | – | – | – | – | pIC50 [8]: 5.92; pIC50 [9]: < 4.52; pIC50 [5]: 7.52; pIC50 [10]: < 4.52; pIC50 [11]: < 4.52; pIC50 [12]: 5.17; pIC50 [13]: < 4.52; pIC50 [14]: < 4.52; pIC50 [15]: < 4.52
17 | COC(=O)Nc1nc2cc(C(=O)c3cccs3)ccc2[nH]1 [NOCODAZOLE] | – | – | – | – | pIC50 [7]: < 5.70
18 | O=C1Cc2cnn(-c3cc(Cl)cc(Cl)c3)c2-c2cc(Br)ccc2N1 | – | – | – | – | pIC50 [7]: 5.88
19 | O=C1Cc2c([nH]c3ccc(Br)cc23)-c2ccccc2N1 [KENPAULLONE] | – | – | – | – | pIC50 [7]: < 5.70
20 | O=[N+]([O-])c1ccc([C@@H]2C[C@H]3Cc4ccc5ccccc5c4N2O3)cc1 | 5.07 | > 903 | 5.30 | > 903 | –
21 | Cc1ccccc1[C@@H]1C[C@H](O)Cc2ccc3ccccc3c2N1 | 5.60 | 36.1 | 4.44 | 41.6 | –
22 | O=C1Cc2cnn(-c3cccc(Br)c3)c2-c2ccccc2N1 | – | – | – | – | pIC50 [7]: 5.88
23 | OCCCN1CCC2CC1c1cc(-c3ccc(C(F)(F)F)cc3)ccc12 (centres undefined) | – | – | – | – | pKi [6]: 7.34
24 | CC1CS(=O)(=O)CCN1/N=C/c1ccc([N+](=O)[O-])o1 (centres undefined) [NIFURTIMOX] | – | 67.5 | – | – | –
25 | C[C@@H]1[C@H](O)[C@@H](C)/C=C/C=C/C=C/C=C/C=C/C=C/C=C/[C@H](O[C@@H]2O[C@H](C)[C@@H](O)[C@H](N)[C@@H]2O)C[C@@H]2O[C@](O)(C[C@@H](O)C[C@@H](O)[C@H](O)CC[C@@H](O)C[C@@H](O)CC(=O)O[C@H]1C)C[C@H](O)[C@H]2C(=O)O [AMPHOTERICIN B] | – | – | 8.00 | – | –
